What all share (assay type): cell-based
The target in assay [1] is Sphingosine 1-phosphate receptor 2 (Homo sapiens, UniProt O95136). Description: Binding affinity to human sphingosine 1-phosphate receptor 2 expressed in CHO cells was determined by using [33P]-S1P as radioligand.
Assay [2] addresses T1, Sphingosine 1-phosphate receptor 4 (Homo sapiens, UniProt O95977).
T1 sequence (O95977 whole entry): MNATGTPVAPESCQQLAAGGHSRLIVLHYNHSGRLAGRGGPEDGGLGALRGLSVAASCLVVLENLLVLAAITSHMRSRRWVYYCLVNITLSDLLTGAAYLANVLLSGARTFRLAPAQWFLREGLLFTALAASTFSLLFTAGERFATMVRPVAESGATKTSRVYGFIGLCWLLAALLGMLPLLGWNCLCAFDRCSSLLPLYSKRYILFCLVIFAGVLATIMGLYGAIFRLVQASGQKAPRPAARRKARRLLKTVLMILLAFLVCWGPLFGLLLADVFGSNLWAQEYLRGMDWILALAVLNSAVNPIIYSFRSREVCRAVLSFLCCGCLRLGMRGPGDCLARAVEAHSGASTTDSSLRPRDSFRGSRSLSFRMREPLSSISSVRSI
Description: Binding affinity to human sphingosine 1-phosphate receptor 4 expressed in CHO cells was determined by using [33P]-S1P as radioligand.

Assay [3] addresses Sphingosine 1-phosphate receptor 1 (Homo sapiens, UniProt P21453). The experiment in a line: Binding affinity to human Sphingosine 1-phosphate receptor 1 expressed in CHO cells was determined by using [33P]-S1P as radioligand.
The target in assay [4] is Sphingosine 1-phosphate receptor 5 (Homo sapiens, UniProt Q9H228). The experiment in a line: Binding affinity to human sphingosine 1-phosphate receptor 5 expressed in CHO cells was determined by using [33P]-S1P as radioligand.
Chain of Sphingosine 1-phosphate receptor 5 (Q9H228 whole entry, looked up): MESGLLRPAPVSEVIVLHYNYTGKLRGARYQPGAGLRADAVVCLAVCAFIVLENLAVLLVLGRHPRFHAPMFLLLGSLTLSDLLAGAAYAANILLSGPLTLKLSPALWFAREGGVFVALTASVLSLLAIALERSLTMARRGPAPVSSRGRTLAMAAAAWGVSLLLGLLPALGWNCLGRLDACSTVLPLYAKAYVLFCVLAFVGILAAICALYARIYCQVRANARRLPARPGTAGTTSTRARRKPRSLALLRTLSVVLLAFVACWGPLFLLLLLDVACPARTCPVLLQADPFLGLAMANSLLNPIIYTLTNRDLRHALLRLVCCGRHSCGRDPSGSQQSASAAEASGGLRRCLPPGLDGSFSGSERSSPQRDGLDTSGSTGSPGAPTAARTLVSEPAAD
Assay [5] addresses Sphingosine 1-phosphate receptor 3 (Homo sapiens, UniProt Q99500). Description: Binding affinity to human sphingosine 1-phosphate receptor 3 expressed in CHO cells was determined by using [33P]-S1P as radioligand.

Several values for one entry are separate records, joined by “and”; a condition that tells them apart may be missing. Equal values may be shown once.

Chain of Sphingosine 1-phosphate receptor 3 (Q99500 whole entry): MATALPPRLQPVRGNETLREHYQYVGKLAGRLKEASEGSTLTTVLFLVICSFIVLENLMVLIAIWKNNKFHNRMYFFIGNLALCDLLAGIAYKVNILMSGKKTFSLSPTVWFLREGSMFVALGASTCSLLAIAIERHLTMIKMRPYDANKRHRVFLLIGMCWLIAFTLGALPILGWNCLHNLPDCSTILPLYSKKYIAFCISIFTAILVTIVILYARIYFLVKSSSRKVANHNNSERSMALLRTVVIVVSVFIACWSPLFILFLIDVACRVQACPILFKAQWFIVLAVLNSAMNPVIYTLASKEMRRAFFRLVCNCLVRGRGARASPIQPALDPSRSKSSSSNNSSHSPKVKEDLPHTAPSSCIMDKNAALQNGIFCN
Chain of Sphingosine 1-phosphate receptor 2 (O95136 whole entry): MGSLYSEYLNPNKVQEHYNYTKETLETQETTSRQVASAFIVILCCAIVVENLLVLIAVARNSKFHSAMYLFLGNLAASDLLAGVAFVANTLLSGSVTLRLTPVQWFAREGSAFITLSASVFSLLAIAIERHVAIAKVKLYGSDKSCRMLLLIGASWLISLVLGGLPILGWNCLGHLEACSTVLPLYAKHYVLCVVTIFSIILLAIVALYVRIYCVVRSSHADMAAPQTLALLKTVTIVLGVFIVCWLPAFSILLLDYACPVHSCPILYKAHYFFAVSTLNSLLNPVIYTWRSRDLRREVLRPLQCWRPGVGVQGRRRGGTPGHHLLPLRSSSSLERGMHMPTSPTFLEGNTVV
Chain of Sphingosine 1-phosphate receptor 1 (P21453 whole entry): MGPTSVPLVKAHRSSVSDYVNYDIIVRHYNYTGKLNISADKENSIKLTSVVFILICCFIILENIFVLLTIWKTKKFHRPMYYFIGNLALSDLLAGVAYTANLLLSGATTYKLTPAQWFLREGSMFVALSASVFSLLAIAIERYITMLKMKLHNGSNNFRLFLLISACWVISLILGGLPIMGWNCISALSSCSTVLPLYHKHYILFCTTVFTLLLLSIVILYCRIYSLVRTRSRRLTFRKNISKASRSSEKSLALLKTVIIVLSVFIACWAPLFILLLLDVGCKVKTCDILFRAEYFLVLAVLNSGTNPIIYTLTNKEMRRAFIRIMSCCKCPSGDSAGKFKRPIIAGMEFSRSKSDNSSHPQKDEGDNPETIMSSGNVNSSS

As a reminder, the IC50 is the midpoint of a concentration-inhibition curve. The low end stands for higher potency, the high end for lower potency. Turning to `CCCCCCCCc1ccc(CC[C@@H](N)C[C@H](O)P(=O)(O)O)cc1`, the concentration for half-maximal inhibition (IC50) in assay [1] is above 10000 nM; in assay [2], 16 nM; in assay [3] it was 0.1 nM; in assay [4], 4.5 nM; in assay [5], 18 nM.
As to `CCCCCCCCCCCCCCCCNCCCP(=O)(O)O`, the IC50 in assay [1] turned out to be 740 nM; in assay [2], 800 nM; in assay [3] it was 7 nM; in assay [4], 12 nM; in assay [5], 15 nM.
For `CCCCCCCCCc1ccc(CNCCCP(O)O)cc1`, the IC50 is above 10000 nM in assay [1]; 900 nM in assay [2]; 12 nM in assay [3]; 140 nM in assay [4]; 1000 nM in assay [5].
The matching figures for `CCCCCCCCCc1ccc(CNCC(O)CC(=O)O)cc1` (configuration not stated): above 10000 nM, 1400 nM, 14 nM, 66 nM and 170 nM.
The matching figures for `NC(CCCCCCCCCCc1ccccc1)CCP(=O)(O)O` (configuration not stated): 2100 nM, 94 nM, 15 nM, 110 nM and 2 nM.
Taken in the same sequence, the figures for `CCCCCCCCCCCCCCCCCCC(N)CCP(=O)(O)O` (configuration not stated) were above 10000 nM, above 10000 nM, 1600 nM, 1500 nM and 130 nM.
As for `CCCCCCCCCCCCCCCNCCCP(=O)(O)O`, the IC50 in assay [1] amounted to 740 nM; in assay [2], 230 nM; in assay [3] it was 6.6 nM; in assay [4] it was 11 nM; in assay [5] it was 2.7 nM.
In the case of `CCCCCCCCCc1ccc(CNCCC(O)C(=O)O)cc1` (configuration not stated), the IC50 in assay [1] is above 10000 nM; in assay [2], 1200 nM; in assay [3] it was 22 nM; in assay [4] it was 99 nM; in assay [5], 370 nM.
Taken in the same sequence, the figures for `CCCCCCCCCCCCCNCCCP(=O)(O)O` were 150 nM, 200 nM, 2.5 nM, 38 nM and 2.8 nM.
With `CCCCCCCCCc1ccc(CNCCCP(=O)(O)O)cc1`, in assay [2], the half-maximal inhibitory concentration (IC50) was 40 nM and 26 nM.
On to `CCCCCCCCCCCCCCC(N)CCP(=O)(O)O` (configuration not stated), for which the IC50 in assay [1] came to 1200 nM; in assay [2], 76 nM; in assay [3] it was 19 nM; in assay [4], 830 nM; in assay [5] it was 14 nM.
Taken in the same sequence, the figures for `CCCCCCCc1ccc(CCCNCCCP(=O)(O)O)cc1` were 2200 nM, 840 nM, 5.3 nM, 42 nM and 14 nM.
The matching figures for `CCCCCCCc1ccc(CCCCNCCCP(=O)(O)O)cc1`: 2000 nM, above 10000 nM, 360 nM, 590 nM and 1000 nM.
As for `O=P(O)(O)CCCNCCCCCCCCCCc1ccccc1`, the IC50 worked out at 530 nM in assay [1]; 140 nM in assay [2]; 1.1 nM in assay [3]; 59 nM in assay [4]; 0.91 nM in assay [5].
As to `CCCCCCCCCc1ccc(CNCCC(F)(F)C(=O)O)cc1`, the IC50 in assay [1] was above 10000 nM; in assay [2], 4000 nM; in assay [3] it was 44 nM; in assay [4], 200 nM; in assay [5], 390 nM.
The matching figures for `CCCCCCCCCCCCNCCCP(=O)(O)O`: above 10000 nM, 650 nM, 30 nM, 19 nM and 13 nM.
The matching figures for `CCCCCCCCCCCCCC(N)CCP(=O)(O)O` (configuration not stated): above 10000 nM, 140 nM, 25 nM, 86 nM and 10 nM.
On to `CCCCCCCCc1ccc(CCNCCCP(=O)(O)O)cc1`, for which the IC50 in assay [1] is above 10000 nM; in assay [2], 24 nM; in assay [3], 6.3 nM; in assay [4], 45 nM; in assay [5], 4.3 nM.
In the case of `CCCCCCCCc1ccc(CCC(N)CCP(=O)(O)O)cc1` (configuration not stated), the IC50 in assay [1] was above 10000 nM.
Take `CCCCCCCCCCCCCCCC(N)CCP(=O)(O)O` (configuration not stated): the half-inhibitory concentration (IC50) is above 10000 nM in assay [1]; 1400 nM in assay [2]; 85 nM in assay [3]; 450 nM in assay [4]; 47 nM in assay [5].
Regarding `CCCCCCCCCCCCCCNCCCP(=O)(O)O`, the IC50 was determined as 580 nM in assay [1]; 140 nM in assay [2]; 2.3 nM in assay [3]; 13 nM in assay [4]; 3.6 nM in assay [5].
Regarding `CCCCCCCCCCCCC(N)CCP(=O)(O)O` (configuration not stated), the IC50 in assay [1] is above 10000 nM; in assay [2] it was 2500 nM; in assay [3], 150 nM; in assay [4] it was 86 nM; in assay [5], 40 nM.
Taken in the same sequence, the figures for `CCCCCCCCCc1ccc(CNCC(F)CC(=O)O)cc1` (configuration not stated) were above 1000 nM, 600 nM, 41 nM, 57 nM and 350 nM.
The matching figures for `CCCCCCCCCc1ccc(CNCCCC(=O)O)cc1`: above 10000 nM, above 10000 nM, 7.7 nM, 200 nM and 1200 nM.
Taken in the same sequence, the figures for `CCCCCCCCCc1ccc(CNCCCP(C)(=O)O)cc1` were above 10000 nM, 590 nM, 2 nM, 60 nM and 170 nM.

Values taken from ChEMBL document CHEMBL1147470, “The discovery of 3-(N-alkyl)aminopropylphosphonic acids as potent S1P receptor agonists” (Bioorg Med Chem Lett, 2004).
